From ChEMBL document CHEMBL1201862, “PubChem BioAssay data set” (2004)
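Where inhibition never reached the appropriate level, the endpoint shown equals the highest concentration tested. Otherwise, values were interpolated linearly from a five-concentration, 48-hour dose response in 96-well plates. GI50 is the concentration that inhibits growth by half.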 Activity calls are given as the source filed them. Cut-off read from the data, not from the text of the source: active = GI50 up to about 1.1 µM and inactive = higher.

What was measured:
Test in all cases: NCI tumour cell line growth inhibition, 48 h
OVCAR-3 = tested on: OVCAR-3
KM12 = tested on: KM12
SNB-75 = tested on: SNB-75
A498 = tested on: A498
CCRF-CEM = tested on: CCRF-CEM
K562 = tested on: K562
SF-539 = tested on: SF-539
MOLT-4 = tested on: MOLT-4
SF-268 = tested on: SF-268
EKVX = tested on: EKVX
HOP-62 = tested on: HOP-62
NCI-H226 = tested on: NCI-H226
CAKI-1 = tested on: CAKI-1
UACC-257 = tested on: UACC-257
NCI-H23 = tested on: NCI-H23
OVCAR-8 = tested on: OVCAR-8
SR = tested on: SR
M14 = tested on: M14
HCT-15 = tested on: HCT-15
NCI/ADR-RES = tested on: NCI/ADR-RES
MDA-N = tested on: MDA-N
SK-OV-3 = tested on: SK-OV-3
HL-60 = tested on: HL-60
MDA-MB-231 = tested on: MDA-MB-231
MCF7 = tested on: MCF7
ACHN = tested on: ACHN
A549 = tested on: A549
SK-MEL-28 = tested on: SK-MEL-28
BT-549 = tested on: BT-549
OVCAR-4 = tested on: OVCAR-4
HOP-92 = tested on: HOP-92
NCI-H460 = tested on: NCI-H460
SK-MEL-2 = tested on: SK-MEL-2
SNB-19 = tested on: SNB-19
UACC-62 = tested on: UACC-62
PC-3 = tested on: PC-3
MDA-MB-435 = tested on: MDA-MB-435
HCC 2998 = tested on: HCC 2998
OVCAR-5 = tested on: OVCAR-5
TK-10 = tested on: TK-10
SF-295 = tested on: SF-295
RPMI-8226 = tested on: RPMI-8226
UO-31 = tested on: UO-31
RXF 393 = tested on: RXF 393
SN12C = tested on: SN12C
U-251 = tested on: U-251
Malme-3M = tested on: Malme-3M
HCT-116 = tested on: HCT-116
LOX IMVI = tested on: LOX IMVI
HT-29 = tested on: HT-29
SK-MEL-5 = tested on: SK-MEL-5
786-0 = tested on: 786-0
DU-145 = tested on: DU-145
COLO 205 = tested on: COLO 205

Cc1ccc(-c2cs/c(=N\c3c(C)n(C)n(-c4ccccc4)c3=O)n2CCO)cc1
GI50 (OVCAR-3): > 100 µM (inactive) | GI50 (KM12): > 100 µM (inactive) | GI50 (SNB-75): > 100 µM (inactive) | GI50 (A498): 70 µM (inactive) | GI50 (CCRF-CEM): > 100 µM (inactive) | GI50 (K562): 97.3 µM (inactive) | GI50 (SF-539): > 100 µM (inactive) | GI50 (MOLT-4): 87.5 µM (inactive) | GI50 (SF-268): > 100 µM (inactive) | GI50 (EKVX): 84.7 µM (inactive) | GI50 (HOP-62): > 100 µM (inactive) | GI50 (NCI-H226): > 100 µM (inactive) | GI50 (CAKI-1): > 100 µM (inactive) | GI50 (UACC-257): 53.8 µM (inactive) | GI50 (NCI-H23): 50.8 µM (inactive) | GI50 (OVCAR-8): > 100 µM (inactive) | GI50 (SR): > 100 µM (inactive) | GI50 (M14): > 100 µM (inactive) | GI50 (HCT-15): > 100 µM | GI50 (NCI/ADR-RES): 65.6 µM (inactive) | GI50 (MDA-N): > 100 µM (inactive) | GI50 (SK-OV-3): > 100 µM (inactive) | GI50 (HL-60): > 100 µM (inactive) | GI50 (MDA-MB-231): > 100 µM (inactive) | GI50 (MCF7): 72.9 µM (inactive) | GI50 (ACHN): 46.5 µM (inactive) | GI50 (A549): > 100 µM (inactive) | GI50 (SK-MEL-28): > 100 µM (inactive) | GI50 (BT-549): 74.3 µM (inactive) | GI50 (OVCAR-4): > 100 µM (inactive) | GI50 (HOP-92): > 100 µM (inactive) | GI50 (NCI-H460): > 100 µM (inactive) | GI50 (SK-MEL-2): > 100 µM (inactive) | GI50 (SNB-19): > 100 µM (inactive) | GI50 (UACC-62): > 100 µM (inactive) | GI50 (PC-3): > 100 µM (inactive) | GI50 (MDA-MB-435): > 100 µM (inactive) | GI50 (HCC 2998): > 100 µM (inactive) | GI50 (OVCAR-5): > 100 µM (inactive) | GI50 (TK-10): > 100 µM (inactive) | GI50 (SF-295): > 100 µM (inactive) | GI50 (RPMI-8226): > 100 µM (inactive) | GI50 (UO-31): > 100 µM (inactive) | GI50 (RXF 393): > 100 µM (inactive) | GI50 (SN12C): > 100 µM (inactive) | GI50 (U-251): > 100 µM (inactive)

O=c1[nH]nc(Nc2ccccc2)c2nnn(C3CCCCC3)c12
GI50 (Malme-3M): > 100 µM (inactive) | GI50 (OVCAR-3): > 100 µM (inactive) | GI50 (KM12): > 100 µM (inactive) | GI50 (CCRF-CEM): > 100 µM (inactive) | GI50 (K562): > 100 µM (inactive) | GI50 (HCT-116): > 100 µM (inactive) | GI50 (MOLT-4): > 100 µM (inactive) | GI50 (EKVX): > 100 µM (inactive) | GI50 (HOP-62): > 100 µM (inactive) | GI50 (LOX IMVI): > 100 µM (inactive) | GI50 (CAKI-1): > 100 µM (inactive) | GI50 (UACC-257): > 100 µM (inactive) | GI50 (NCI-H23): > 100 µM (inactive) | GI50 (HT-29): > 100 µM (inactive) | GI50 (OVCAR-8): > 100 µM (inactive) | GI50 (SR): > 100 µM (inactive) | GI50 (M14): > 100 µM (inactive) | GI50 (SK-MEL-5): > 100 µM (inactive) | GI50 (HCT-15): > 100 µM | GI50 (NCI/ADR-RES): > 100 µM (inactive) | GI50 (MDA-N): > 100 µM (inactive) | GI50 (HL-60): > 100 µM (inactive) | GI50 (MDA-MB-231): > 100 µM (inactive) | GI50 (MCF7): > 100 µM (inactive) | GI50 (ACHN): > 100 µM (inactive) | GI50 (A549): > 100 µM (inactive) | GI50 (SK-MEL-28): > 100 µM (inactive) | GI50 (BT-549): > 100 µM (inactive) | GI50 (OVCAR-4): > 100 µM (inactive) | GI50 (HOP-92): > 100 µM (inactive) | GI50 (NCI-H460): > 100 µM (inactive) | GI50 (SK-MEL-2): > 100 µM (inactive) | GI50 (786-0): > 100 µM (inactive) | GI50 (SNB-19): > 100 µM (inactive) | GI50 (PC-3): > 100 µM (inactive) | GI50 (DU-145): > 100 µM (inactive) | GI50 (MDA-MB-435): > 100 µM (inactive) | GI50 (HCC 2998): > 100 µM (inactive) | GI50 (OVCAR-5): > 100 µM (inactive) | GI50 (TK-10): > 100 µM (inactive) | GI50 (SF-295): > 100 µM (inactive) | GI50 (RPMI-8226): > 100 µM (inactive) | GI50 (COLO 205): > 100 µM (inactive) | GI50 (UO-31): > 100 µM (inactive) | GI50 (SN12C): > 100 µM (inactive) | GI50 (U-251): > 100 µM (inactive)
